Measurements as given in patent publication US11052089B2, “Methods for inhibiting alpha-v beta-3 expression on cancer stem cells and inhibiting progression to a cancer stem cell phenotype” (The Regents of the University of California, priority 2014, dated 2021).

Key:
Assay type in all cases: cell-based
[1] = test system: ITGB3, Nanog and OCT4 induction; assay: mRNA induction of ITGB3, Nanog, OCT4 with GSKJ-4 (FIG. 3, FIG. 11); conditions: relative to no serum
Method: (§1) FIG. 3A, FIG. 3B, FIG. 3C and FIG. 3D graphically illustrate data showing that treatment with histone modification inhibitor(s) suppresses the stress induced drug resistant phenotype: FIG. 3A illustrates fold expression mRNA relative to serum after ITGB3 induction of control vehicle, 0.10 μM GSKJ4, and 0.25 μM GSKJ4; FIG. 3B illustrates fold expression mRNA relative to serum after Nanog induction of control vehicle, 0.10 μM GSKJ4, and 0.25 μM GSKJ4; FIG. 3C illustrates nM Erlotinib under conditions comprising serum, no serum and no serum and GSKJ4; and FIG. 3D illustrates fold expression mRNA relative to serum after ITGB3 induction with serum, no serum and no serum and GSKJ4.
FIG. 11A schematically illustrates, and FIG. 11B, FIG. 11C, FIG. 11D and FIG. 11E graphically illustrate that GSKJ-4, which targets histone demethylase JMJD3, suppresses β3 expression as well as pluripotent genes Nanog and OCT4, with the conclusion that GSKJ-4 suppresses ITGB3, Nanog and OCT4 induction by inhibiting JMJD3-targeted H3K27me3 demethylation; and FIG. 11B, FIG. 11C, FIG. 11D and FIG. 11E graphically illustrate fold induction mRNA relative to no serum as a function of GSKJ-4 suppression of ITGB3, Nanog and OCT4 induction, with FIG. 11B, FIG. 11C, FIG. 11D and FIG. 11E illustrating levels of ITGB3, Nanog, OCT4 and SOX2, respectively.

[2] = test system: lung cancer cells (HCC827); assay: 14 day assay for cell surface induction of integrin β3 by nutrient deprivation, cell sorting (FIG. 13, FIG. 14); conditions: HCC827, nutrient deprivation (no serum)
[3] = test system: stress induced drug resistant phenotype; assay: Stress induced drug resistant phenotype, Erlotinib (FIG. 3C); conditions: serum, no serum, no serum and GSKJ4
Method: as §1

[4] = test system: integrin β3 expression in HCC827 lung cancer cells; assay: Stress induced integrin β3 and stem cell gene expression, gels (FIG. 12); conditions: nutrient deprivation (without serum), 0.1 uM
From the text: FIGS. 12A and 12B illustrate data showing the knockdown of P300 histone acetyl transferase (HAT), a known enzyme that targets H3K27ac, in HCC827 lung cancer cells. Histone acetyl transferase (acetyl p300) activity is increased during nutrient deprivation (without serum) leading to integrin β3 expression, which prevents stress-induced expression of integrin β3 and stem cell genes. Increase in histone acetyltransferase (HAT) p300 activity leads to upregulation of integrin β3. Loss of p300 histone acetyltransferase activity prevents the upregulation of integrin β3. Similar to chemical inhibition of HAT activity with anacardic acid at 0.1 uM concentration, a genetic approach was used to knockdown p300 histone acetyl transferase (HAT), a known enzyme that targets H3K27ac prevents expression of integrin β3 and stem cell genes.

ITGB3 = ITGB3 induction in the presence of HAT inhibitor (FIG. 2)
From the text: FIG. 2 graphically illustrates data showing that ITGB3 induction is suppressed in the presence of histone acetyltransferase (HAT) inhibitor anacardic acid.

ITGB3 (β3) induction, fold induction mRNA [1] | Nanog induction, fold induction mRNA [1] | OCT4 induction, fold induction mRNA [1] | SMILES | expansion of integrin β3 expressing stem population [2] | formation of the heterodimeric αVβ3 cell surface expression [2] | induction of integrin β3 gene expression [2] | stress induced drug resistant phenotype [3] | downstream stem cell genes expression [4] | stress induced integrin β3 expression [4] | ITGB3 induction (ITGB3)
suppresses | suppresses | suppresses | CCOC(=O)CCNc1cc(N2CCc3ccccc3CC2)nc(-c2ccccn2)n1 [GSKJ4] | prevents the expansion | prevents | prevents the induction | suppresses |  |  | 
 |  |  | C=CC/C=C\C/C=C\CCCCCCCc1cccc(O)c1C(=O)O [anacardic acid, 2-hydroxy-6-[(8Z,11Z)-pentadeca-8,11,14-trienyl]benzoic acid] |  |  |  |  | prevents | prevents | suppressed
